# ChEMBL document CHEMBL5113368, “Meroterpenoids produced by fungi: Occurrence, structural diversity, biological activities, and their molecular targets” (Eur J Med Chem, 2021)
# Legend:
# Bipolaris oryzae = assay: Antifungal activity against Cochliobolus miyabeanus assessed as fungal growth inhibition measured after 24 hrs by microscopic analysis; type: functional, organism-based
# NCI-H187 = assay: Cytotoxicity against human NCI-H187 cells assessed as cell growth inhibition by colorimetric method; type: functional, cell-based
# KB = assay: Cytotoxicity against human KB cells assessed as cell growth inhibition by colorimetric method; type: functional, cell-based
# BC1 cell line = assay: Cytotoxicity against human BC1 cells assessed as cell growth inhibition by colorimetric method; type: functional, cell-based
# MCF7 = assay: Antiproliferative activity against human MCF7 cells assessed as cell growth inhibition; type: functional, cell-based
# A549 [1] = assay: Antiproliferative activity against human A549 cells assessed as cell growth inhibition; type: functional, cell-based
# SF-268 = assay: Antiproliferative activity against human SF-268 cells assessed as cell growth inhibition; type: functional, cell-based
# HepG2 = assay: Antiproliferative activity against human HepG2 cells assessed as cell growth inhibition; type: functional, cell-based
# Suid alphaherpesvirus 1 = assay: Antiviral activity against pseudorabies virus assessed as inhibition of viral growth; type: functional, organism-based
# [2] = Antioxidant activity assessed as DPPH radical scavenging activity; type: functional
# [3] = Antioxidant activity assessed as ABTS radical scavenging activity; type: functional
# SW480 = assay: Cytotoxicity against human SW480 cells assessed as cell growth inhibition measured after 48 hrs by CCK-8 assay; type: functional, cell-based; conditions: SW480, 48 h
# HeLa = assay: Cytotoxicity against human HeLa cells assessed as cell growth inhibition measured after 48 hrs by CCK-8 assay; type: functional, cell-based
# Candida albicans = assay: Antifungal activity against Candida albicans assessed as fungal growth inhibition incubated for 24 hrs by absorbance based analysis; type: functional
# Fusarium graminearum = assay: Antifungal activity Fusarium graminearum assessed as inhibition of fungal growth by microbroth dilution method; type: functional
# Salmonella typhi = assay: Antibacterial activity against Salmonella typhi assessed as reduction in microbial growth by modified broth dilution test; type: functional, Salmonella enterica subsp. enterica serovar Typhi; conditions: Salmonella enterica
# A549 [4] = assay: Cytotoxicity against human A549 cells assessed as cell growth inhibition by CCK-8 method; type: functional, cell-based
# [5] = target: T1, Prostaglandin G/H synthase 2 (Homo sapiens, UniProt P35354); assay: Inhibition of human recombinant COX-2 pretreated with compound for 10 mins followed by substrate addition for 10 mins by fluorescent inhibitor screening assay
# T1 sequence (P35354 whole entry): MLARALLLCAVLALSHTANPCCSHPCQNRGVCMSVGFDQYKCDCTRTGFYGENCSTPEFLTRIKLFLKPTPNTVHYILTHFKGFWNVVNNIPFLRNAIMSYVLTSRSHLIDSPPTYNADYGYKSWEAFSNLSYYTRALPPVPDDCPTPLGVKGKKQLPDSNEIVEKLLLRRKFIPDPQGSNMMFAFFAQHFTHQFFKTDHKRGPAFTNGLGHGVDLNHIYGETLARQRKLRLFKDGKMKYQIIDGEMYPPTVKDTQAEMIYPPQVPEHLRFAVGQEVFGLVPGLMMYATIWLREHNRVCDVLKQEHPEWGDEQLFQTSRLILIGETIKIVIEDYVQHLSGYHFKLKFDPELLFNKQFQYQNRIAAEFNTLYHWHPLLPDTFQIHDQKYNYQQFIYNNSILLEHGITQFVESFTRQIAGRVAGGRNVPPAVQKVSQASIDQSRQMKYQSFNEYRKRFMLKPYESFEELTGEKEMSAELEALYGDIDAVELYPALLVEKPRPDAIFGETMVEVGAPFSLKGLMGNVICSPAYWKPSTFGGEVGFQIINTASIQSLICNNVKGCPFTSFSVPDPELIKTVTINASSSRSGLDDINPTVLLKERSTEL
# [6] = system: Clavibacter michiganensis subsp. sepedonicus; assay: Antibacterial activity against Clavibacter michiganensis subsp. sepedonicus assessed as inhibition of bacterial growth measured after 18 to 48 hrs; type: functional; conditions: time 18-48 hrs
# Vibrio alginolyticus = assay: Antibacterial activity against Vibrio alginolyticus assessed as bacterial growth inhibition incubated for 24 hrs by absorbance based analysis; type: functional
# Vibrio parahaemolyticus = assay: Antibacterial activity against Vibrio parahaemolyticus assessed as bacterial growth inhibition incubated for 24 hrs by absorbance based analysis; type: functional
# Vibrio anguillarum = assay: Antibacterial activity against Vibrio anguillarum assessed as bacterial growth inhibition incubated for 24 hrs by absorbance based analysis; type: functional
# [7] = Cytotoxicity against human Caco-2 cells assessed as cell growth inhibition measured after 24 hrs by MTT assay; type: toxicity, cell-based
# HL-60 = assay: Cytotoxicity against human HL-60 cells assessed as cell growth inhibition measured after 24 hrs by MTT assay; type: functional, cell-based; conditions: HL-60, 24 h
# THP-1 = assay: Cytotoxicity against human THP-1 cells assessed as cell growth inhibition measured after 24 hrs by MTT assay; type: functional, cell-based; conditions: THP-1, 24 h
# [8] = Toxicity in brine shrimp assessed as induction of lethality; conditions: artemia salina; read-out: LD50 (the source's name)
compound,measurement,setting,value
C/C=C(\C)C(=O)[C@H](C)C1=CC(=O)C2=C(O[C@@]3(C)CC[C@H]4OC(C(C)(C)O)CC[C@]4(C)[C@H]3C2)C1=O (some centres not stated),IC50,Bipolaris oryzae,0.1 µg/mL
Cc1cc2c(c(=O)o1)C[C@H]1[C@]3(C)CC[C@H]4C(C)(C)[C@@H](O)CC[C@]4(C)[C@H]3CC[C@]1(C)O2,IC50,NCI-H187,9.8 µg/mL
same,IC50,KB,2.9 µg/mL
same,IC50,BC1 cell line,8.7 µg/mL
COC(=O)/C=C1\O[C@@]2(C)C/C=C/C(C)(C)C[C@@H]3Cc4c(C)cc(=O)c(O)cc4O[C@]3(C)[C@H](O)C[C@@H]2C[C@@]12OC(=O)C=C2C,IC50,MCF7,500 nM
same,IC50,A549 [1],500 nM
same,IC50,SF-268,500 nM
same,IC50,HepG2,500 nM
C[C@@H]1Cc2c3c(cc(O)c2C(=O)O1)O[C@]1(C)CCC[C@](C)([C@H]2C[C@@H](O)C2(C)C)[C@H]1C3,EC50,Suid alphaherpesvirus 1,3.35 µM
C/C(=C\CCC1=CC(c2cc(O)ccc2O)OC1=O)C(=O)O (configuration not stated),IC50,[2],65.4 µM
same,IC50,[3],31.2 µM
C[C@]1(O)C=Cc2cc(C(=O)O)ccc2OC1,IC50,SW480,16.3 µM
same,IC50,HeLa,38.6 µM
CC(C)(O)[C@@H]1C[C@@H](O)[C@]2(C(=O)O)[C@H](CC[C@@]3(C)[C@H]2CC[C@H]2Cc4c([nH]c5ccccc45)[C@@]23C)O1,MIC,Candida albicans,12.5 µg/mL
Cc1oc(=O)c2c(c1C)O[C@]1(C)[C@H](O)[C@@H]3O[C@](O)(CC[C@H](C)[C@H]1C2)C(C)(C)C3=O,MIC,Fusarium graminearum,12.5 µg/mL
same,MIC,Salmonella typhi,12.5 µg/mL
CC(C)=CCC/C(C)=C/CCC1=C[C@]2(OC1=O)c1cc(O)ccc1OC(=O)[C@]2(CC/C=C(\C)CCC=C(C)C)CC(=O)c1cc(O)ccc1O (racemic),IC50,A549 [4],7.14 µM
same,IC50,[5],1290 nM
CC1=CC[C@H]2C(C)(C)C(=O)CC[C@]2(C)[C@H]1C[C@@]12O[C@@H]1[C@H](O)C(CO)=C[C@H]2O,MIC,[6],9.48 µg/mL
CC(C)(O)[C@H](O)CC[C@]1(C)[C@@H](O)CC[C@@]2(C)[C@H]1CC[C@H]1Cc3c([nH]c4ccccc34)[C@@]12C,MIC,Vibrio alginolyticus,3.1 µM
same,MIC,Vibrio parahaemolyticus,6.3 µM
same,MIC,Vibrio anguillarum,3.1 µM
C=C1[C@@]2(C)C[C@H]3[C@@]4(C)C(=CC[C@]3(C)[C@]1(C(=O)OC)C(=O)[C@@](C)(O)C2=O)C(C)(C)C(=O)C[C@H]4O [BERKELEYTRIONE],IC50 at 24 h,[7],10.5 µM
same,IC50,HL-60,3.4 µM
same,IC50,THP-1,4.3 µM
C=C(C)[C@H]1O[C@H]2CC[C@@]3(C)[C@@](O)(CC[C@@]4(O)[C@@H]5OC(C)(C)[C@H]6C[C@@H]7C(=C)Cc8ccc9[nH]c(c5c9c8[C@@]76O)[C@]34C)[C@]23O[C@@H]3[C@H]1O,LC50,[8],4.6 µM
C=C(C)[C@H]1O[C@H]2CC[C@@]3(C)[C@@](O)(CC[C@@]4(O)[C@@H]5OC(C)(C)[C@H]6C[C@@H]7C(=C)Cc8c(Cl)cc9[nH]c(c5c9c8[C@@]76O)[C@]34C)[C@]23O[C@@H]3[C@H]1O,LC50,[8],3.2 µM
